# Assay results as given in article PMC10974507, “Design, Synthesis, Biological Evaluation and Molecular Docking of Novel F-18-Labeled Focal Adhesion Kinase Inhibitors as Potential Tumor Radiotracers” (Molecules, 2024).
# Assays:
# [1] = target: FAK (Homo sapiens, UniProt Q05397); assay: FAK inhibitory assay (homogeneous time-resolved fluorescence kinase assay); type: biochemical; conditions: in vitro enzyme activity against FAK
# Description: The inhibitory activities of the 7a–7c against FAK were tested using a homogeneous time-resolved fluorescence methodology-based kinase assay.
# (§1) The FAK kinase inhibition test and the partition coefficient test were conducted according to a previously reported method.
# [2] = test system: mice bearing S-180 tumors; assay: Biodistribution in S-180 tumor-bearing mice; type: in vivo, Kunming mice; conditions: for Biodistribution, Blood / Biodistribution, Bone / Biodistribution, Brine / Biodistribution, Heart / Biodistribution, Kidney / Biodistribution, Large intestine / Biodistribution, Liver / Biodistribution, Lung / Biodistribution, Muscle / Biodistribution, Small intestine / Biodistribution, Spleen / Biodistribution, Stomach / Biodistribution, Tumor (tumor uptake): mean ± SD, n = 3; for Biodistribution, Tumor (tumor uptake): S-180 tumor
# Description: Kunming mice (female, 18−22 g) and S180 ascites mice were purchased from Beijing Xinglong Animal Technology Co., Ltd., Beijing, China and Beijing Vital River Animal Technology Co., Ltd., Beijing, China, respectively. All the mice-concerned experiments were conducted in strict accordance with the “Guidelines for Humane Treatment of Laboratory Animals”, and the whole process was approved by the Animal Protection Committee of Beijing Normal University (Approval Code: BNUCC-EAW-2023-16; Approval date: 14 June 2023). The specific experimental operations were in accordance with those methods described previously.
# [3] = Octanol/water partition coefficient determination; type: physicochemical; conditions: pH 7.4, read-out: logD7.4
# Description: The partition coefficients of the radiotracers [^18F]7a and [^18F]7c were determined to evaluate the octanol/water partition properties.
# as §1
# [4] = 30 min after intravenous injection
# [5] = 60 min after intravenous injection
# [6] = 120 min after intravenous injection
# Sequence of FAK (Q05397 whole entry, species assumed): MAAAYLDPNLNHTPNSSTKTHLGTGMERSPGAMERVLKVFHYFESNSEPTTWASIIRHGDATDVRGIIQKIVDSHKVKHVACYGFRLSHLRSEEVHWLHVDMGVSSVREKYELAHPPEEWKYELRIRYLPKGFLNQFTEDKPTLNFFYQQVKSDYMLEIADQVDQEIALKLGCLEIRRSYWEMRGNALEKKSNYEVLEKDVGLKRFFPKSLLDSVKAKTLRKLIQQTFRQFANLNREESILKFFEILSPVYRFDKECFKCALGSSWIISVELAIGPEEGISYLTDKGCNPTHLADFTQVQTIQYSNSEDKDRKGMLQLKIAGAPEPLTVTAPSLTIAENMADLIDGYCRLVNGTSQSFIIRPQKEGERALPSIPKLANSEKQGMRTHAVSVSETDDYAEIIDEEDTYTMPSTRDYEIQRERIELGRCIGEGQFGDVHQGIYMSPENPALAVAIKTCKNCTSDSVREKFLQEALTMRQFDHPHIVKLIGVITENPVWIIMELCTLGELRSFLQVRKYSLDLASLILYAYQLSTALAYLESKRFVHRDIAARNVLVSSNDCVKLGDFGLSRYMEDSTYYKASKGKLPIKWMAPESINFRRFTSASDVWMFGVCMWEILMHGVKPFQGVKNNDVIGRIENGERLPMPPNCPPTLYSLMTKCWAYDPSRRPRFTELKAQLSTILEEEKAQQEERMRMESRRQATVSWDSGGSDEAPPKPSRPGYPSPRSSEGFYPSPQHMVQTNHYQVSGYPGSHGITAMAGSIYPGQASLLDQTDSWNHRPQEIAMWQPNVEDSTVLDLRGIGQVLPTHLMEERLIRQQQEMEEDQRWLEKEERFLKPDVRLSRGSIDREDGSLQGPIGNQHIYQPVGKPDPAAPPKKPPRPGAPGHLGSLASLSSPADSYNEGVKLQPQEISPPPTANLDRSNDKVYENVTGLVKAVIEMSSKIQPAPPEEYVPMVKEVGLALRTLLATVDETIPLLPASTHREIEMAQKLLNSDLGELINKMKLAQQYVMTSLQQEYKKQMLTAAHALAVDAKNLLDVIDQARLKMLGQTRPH
smiles,measurement,setting,value
"CNC(=O)c1cc(N2CCN(C(C)=O)CC2)ccc1Nc1nc(Nc2ccc(OCCOCCOCCF)c(-c3cnn(C)c3)c2)ncc1Br [Compound 7e, 5-(4-acetylpiperazin-1-yl)-2-((5-bromo-2-((4-(2-(2-(2-fluoroethoxy)ethoxy)ethoxy)-3-(1-methyl-1H-pyrazol-4-yl)phenyl)amino)pyrimidin-4-yl)amino)-N-methylbenzamide]",IC50,[1],643 nM
CNC(=O)c1cc(N2CCOCC2)ccc1Nc1nc(Nc2ccc(OCCOCCOCCF)c(C(=O)N3CCN(C(C)=O)CC3)c2)ncc1Br [Compound 7f],IC50,[1],10 nM
"CCN1CCN(c2ccc(Nc3nc(Nc4ccc(OCCOCCOCCF)c(-c5cnn(C)c5)c4)ncc3Br)c(C(=O)NC)c2)CC1 [Compound 7g, 2-((5-bromo-2-((4-(2-(2-(2-fluoroethoxy)ethoxy)ethoxy)-3-(1-methyl-1H-pyrazol-4-yl)phenyl)amino)pyrimidin-4-yl)amino)-5-(4-ethylpiperazin-1-yl)-N-methylbenzamide]",IC50,[1],1240 nM
CNC(=O)c1cc(N2CCS(=O)(=O)CC2)ccc1Nc1nc(Nc2ccc(OCCOCCOCC[18F])cc2)ncc1Br [[^18F]7a],Tumor/blood ratio,[2]; [4],1.34
same,Tumor/muscle ratio,[2]; [4],0.80
same,"Biodistribution, Blood",[2]; [4],0.98 ± 0.26 % ID/g
same,"Biodistribution, Bone",[2]; [4],2.32 ± 0.45 % ID/g
same,"Biodistribution, Brine",[2]; [4],0.57 ± 0.08 % ID/g
same,"Biodistribution, Heart",[2]; [4],3.05 ± 0.29 % ID/g
same,"Biodistribution, Kidney",[2]; [4],3.02 ± 1.70 % ID/g
same,"Biodistribution, Large intestine",[2]; [4],1.46 ± 0.13 % ID/g
same,"Biodistribution, Liver",[2]; [4],23.49 ± 4.29 % ID/g
same,"Biodistribution, Lung",[2]; [4],33.55 ± 5.59 % ID/g
same,"Biodistribution, Muscle",[2]; [4],1.63 ± 0.34 % ID/g
same,"Biodistribution, Small intestine",[2]; [4],2.95 ± 0.17 % ID/g
same,"Biodistribution, Spleen",[2]; [4],5.43 ± 1.12 % ID/g
same,"Biodistribution, Stomach",[2]; [4],0.92 ± 0.28 % ID/g
same,Tumor/blood ratio,[2]; [5],1.45
same,Tumor/muscle ratio,[2]; [5],0.56
same,"Biodistribution, Blood",[2]; [5],0.96 ± 0.10 % ID/g
same,"Biodistribution, Bone",[2]; [5],2.96 ± 0.43 % ID/g
same,"Biodistribution, Brine",[2]; [5],1.08 ± 0.13 % ID/g
same,"Biodistribution, Heart",[2]; [5],1.12 ± 0.03 % ID/g
same,"Biodistribution, Kidney",[2]; [5],1.47 ± 0.18 % ID/g
same,"Biodistribution, Large intestine",[2]; [5],1.36 ± 0.36 % ID/g
same,"Biodistribution, Liver",[2]; [5],23.16 ± 2.65 % ID/g
same,"Biodistribution, Lung",[2]; [5],28.77 ± 5.72 % ID/g
same,"Biodistribution, Muscle",[2]; [5],2.50 ± 0.59 % ID/g
same,"Biodistribution, Small intestine",[2]; [5],1.58 ± 0.35 % ID/g
same,"Biodistribution, Spleen",[2]; [5],2.53 ± 0.21 % ID/g
same,"Biodistribution, Stomach",[2]; [5],0.80 ± 0.21 % ID/g
same,Tumor/blood ratio,[2]; [6],0.89
same,Tumor/muscle ratio,[2]; [6],4.30
same,"Biodistribution, Blood",[2]; [6],0.92 ± 0.15 % ID/g
same,"Biodistribution, Bone",[2]; [6],1.27 ± 0.42 % ID/g
same,"Biodistribution, Brine",[2]; [6],0.16 ± 0.01 % ID/g
same,"Biodistribution, Heart",[2]; [6],0.85 ± 0.09 % ID/g
same,"Biodistribution, Kidney",[2]; [6],1.16 ± 0.06 % ID/g
same,"Biodistribution, Large intestine",[2]; [6],4.5 ± 1.91 % ID/g
same,"Biodistribution, Liver",[2]; [6],8.86 ± 3.14 % ID/g
same,"Biodistribution, Lung",[2]; [6],11.63 ± 1.25 % ID/g
same,"Biodistribution, Muscle",[2]; [6],0.20 ± 0.03 % ID/g
same,"Biodistribution, Small intestine",[2]; [6],0.96 ± 0.29 % ID/g
same,"Biodistribution, Spleen",[2]; [6],5.58 ± 1.06 % ID/g
same,"Biodistribution, Stomach",[2]; [6],1.16 ± 0.40 % ID/g
same,"Biodistribution, Tumor (tumor uptake)",[2]; [4],1.31 ± 0.07 % ID/g
same,"Biodistribution, Tumor (tumor uptake)",[2]; [5],1.39 ± 0.30 % ID/g
same,"Biodistribution, Tumor (tumor uptake)",[2]; [6],0.86 ± 0.34 % ID/g
same,logD,[3],0.96
CNC(=O)c1cc(N2CCS(=O)(=O)CC2)ccc1Nc1nc(Nc2ccc(OCCOCCOCC[18F])c(-c3cnn(C)c3)c2)ncc1Br [[^18F]7c],Tumor/blood ratio,[2]; [4],2.40
same,Tumor/muscle ratio,[2]; [4],1.88
same,"Biodistribution, Blood",[2]; [4],2.74 ± 0.11 % ID/g
same,"Biodistribution, Bone",[2]; [4],4.12 ± 0.39 % ID/g
same,"Biodistribution, Brine",[2]; [4],2.81 ± 0.06 % ID/g
same,"Biodistribution, Heart",[2]; [4],3.46 ± 0.65 % ID/g
same,"Biodistribution, Kidney",[2]; [4],4.00 ± 0.25 % ID/g
same,"Biodistribution, Large intestine",[2]; [4],6.18 ± 0.60 % ID/g
same,"Biodistribution, Liver",[2]; [4],17.64 ± 4.45 % ID/g
same,"Biodistribution, Lung",[2]; [4],120.47 ± 15.08 % ID/g
same,"Biodistribution, Muscle",[2]; [4],3.50 ± 0.18 % ID/g
same,"Biodistribution, Small intestine",[2]; [4],13.02 ± 1.93 % ID/g
same,"Biodistribution, Spleen",[2]; [4],16.32 ± 1.26 % ID/g
same,"Biodistribution, Stomach",[2]; [4],5.81 ± 1.02 % ID/g
same,Tumor/blood ratio,[2]; [5],1.71
same,Tumor/muscle ratio,[2]; [5],2.09
same,"Biodistribution, Blood",[2]; [5],3.43 ± 0.04 % ID/g
same,"Biodistribution, Bone",[2]; [5],4.86 ± 0.30 % ID/g
same,"Biodistribution, Brine",[2]; [5],3.12 ± 0.66 % ID/g
same,"Biodistribution, Heart",[2]; [5],2.53 ± 0.56 % ID/g
same,"Biodistribution, Kidney",[2]; [5],3.82 ± 0.44 % ID/g
same,"Biodistribution, Large intestine",[2]; [5],4.47 ± 0.44 % ID/g
same,"Biodistribution, Liver",[2]; [5],19.21 ± 3.81 % ID/g
same,"Biodistribution, Lung",[2]; [5],128.13 ± 6.74 % ID/g
same,"Biodistribution, Muscle",[2]; [5],2.80 ± 0.49 % ID/g
same,"Biodistribution, Small intestine",[2]; [5],5.73 ± 0.82 % ID/g
same,"Biodistribution, Spleen",[2]; [5],8.48 ± 0.10 % ID/g
same,"Biodistribution, Stomach",[2]; [5],1.14 ± 0.16 % ID/g
same,Tumor/blood ratio,[2]; [6],1.37
same,Tumor/muscle ratio,[2]; [6],2.16
same,"Biodistribution, Blood",[2]; [6],3.79 ± 0.46 % ID/g
same,"Biodistribution, Bone",[2]; [6],10.70 ± 1.01 % ID/g
same,"Biodistribution, Brine",[2]; [6],2.01 ± 0.18 % ID/g
same,"Biodistribution, Heart",[2]; [6],3.12 ± 0.25 % ID/g
same,"Biodistribution, Kidney",[2]; [6],3.50 ± 0.37 % ID/g
same,"Biodistribution, Large intestine",[2]; [6],48.07 ± 9.85 % ID/g
same,"Biodistribution, Liver",[2]; [6],28.36 ± 5.74 % ID/g
same,"Biodistribution, Lung",[2]; [6],125.29 ± 16.25 % ID/g
same,"Biodistribution, Muscle",[2]; [6],2.04 ± 0.12 % ID/g
same,"Biodistribution, Small intestine",[2]; [6],7.49 ± 1.46 % ID/g
same,"Biodistribution, Spleen",[2]; [6],24.70 ± 4.31 % ID/g
same,"Biodistribution, Stomach",[2]; [6],3.32 ± 0.31 % ID/g
same,"Biodistribution, Tumor (tumor uptake)",[2]; [4],6.58 ± 0.46 % ID/g
same,"Biodistribution, Tumor (tumor uptake)",[2]; [5],5.85 ± 0.28 % ID/g
same,"Biodistribution, Tumor (tumor uptake)",[2]; [6],5.18 ± 0.68 % ID/g
same,logD,[3],0.74
